Tests used:
[1] = target: Signal transducer and activator of transcription 3 (STAT3) (Homo sapiens, UniProt P40763); test: transcriptional activity of STAT3
[2] = tested on: fully differentiated 3T3L1 adipocytes; test: glucose uptake in 3T3L1 adipocytes; format: cell-based; conditions: insulin as positive control
Experimental: (§1) The compound 2,2,15,15-tetramethylhexadecane-1,16-dioic acid (also designated M16αα), and also the compounds […] (M18αα) and 2,2,19,19-tetramethyl-[…]-1,20-dioic acid (M20αα), were tested for their effect on glucose uptake and production, and the expression of glucose- and lipid-related genes in in vitro models. […] Inhibition of glucose production was tested in HepG2 human liver cells.

[3] = target: T1, Hepatocyte nuclear factor 4-alpha (HNF4α) (Homo sapiens, UniProt P41235); test: transcriptional activity of HNF4α
T1 sequence (P41235 1-474): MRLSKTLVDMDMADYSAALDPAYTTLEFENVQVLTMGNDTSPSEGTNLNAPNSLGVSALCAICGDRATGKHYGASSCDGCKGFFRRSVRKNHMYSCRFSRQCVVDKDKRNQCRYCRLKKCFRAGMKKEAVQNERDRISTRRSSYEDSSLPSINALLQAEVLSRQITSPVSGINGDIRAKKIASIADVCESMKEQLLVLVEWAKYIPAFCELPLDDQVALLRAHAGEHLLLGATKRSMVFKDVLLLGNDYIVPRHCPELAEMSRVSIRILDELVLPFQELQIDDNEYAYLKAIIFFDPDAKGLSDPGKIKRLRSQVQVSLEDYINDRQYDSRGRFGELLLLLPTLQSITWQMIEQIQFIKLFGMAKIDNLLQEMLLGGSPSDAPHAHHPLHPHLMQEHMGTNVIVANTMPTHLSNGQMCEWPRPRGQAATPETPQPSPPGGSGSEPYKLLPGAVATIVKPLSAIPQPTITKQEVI

[4] = tested on: C57BL/KsJ (db/db) Spontaneous T2D mice; test: glucose lowering effect in db/db mice; format: in vivo; conditions: once daily oral 30 mg/kg
Experimental: In addition, the glucose lowering effect of the above three compounds M16αα, M18αα and M20αα was tested in C57BL/KsJ (db/db) Spontaneous T2D mice, which serve as a model for T2D. These animals are characterized by hyperphagia, obesity, hyperglycemia and insulin resistance. The mice were treated once daily by oral administration of the tested compound at 30 mg/kg.

half-life in humans = format: in vivo
From the text: The half-life (T1/2) of Medica compounds in humans differs considerably from their half-life in model animals. […] This difference in half-life could not be expected, and is of considerable significance when designing a new treatment protocol for humans.

HepG2 human liver cells = test: inhibition of glucose production in HepG2 cells; format: cell-based
Experimental: as §1

[5] = tested on: genes that control liver gluconeogenesis and lipid synthesis; test: expression of glucose- and lipid-related genes in in vitro models; format: cell-based
Experimental: as §1

[6] = tested on: mitochondrial permeability transition pore (PTP); test: gating of mitochondrial PTP; conditions: mild decoupling of mitochondrial oxidative phosphorylation
[7] = tested on: Type 2 Diabetes Mellitus (T2D) patients; test: 4-week M16αα study in T2D patients, safety and tolerability; format: in vivo, human; conditions: 40 mg/day oral, 28 days
Experimental: T2D patients, non-treated or treated with SoC antidiabetic drugs as outlined below, were screened for eligibility (inclusion/exclusion according to criteria detailed below), followed by being randomly allocated to receive once daily either add-on M16αα (40 mg M16αα plus 130 mg microcrystalline cellulose in gelatin capsules) or add-on placebo (130 mg microcrystalline cellulose in gelatin capsules), in addition to the SoC anti-diabetic treatment they have been receiving regularly. One patient was not under SoC anti-diabetic drug treatment. Sixteen (16) patients were randomized to M16αα treatment and 3 patients were randomized to placebo treatment. Patients randomized to M16αα treatment were dosed for 28 days with add-on M16αα in double-blinded manner, followed by 4-week recovery period using add-on placebo in a single-blinded manner. Patients randomized to placebo treatment were dosed for 28 days with add-on placebo in double-blinded manner.
The primary safety endpoint was the frequency, severity, and duration of adverse events (AEs), including clinically significant laboratory abnormalities after administration of M16αα.
Safety was evaluated on the basis of the following assessments: Adverse events (AEs)—continuous (starting from informed consent signature until end of study); vital signs; 12-lead ECG; physical examination; safety laboratory evaluations (blood and urine). […]

animal models = test: plasma lipid lowering in animal models; format: in vivo
[8] = tested on: animal models for T2D (e.g., db/db rats, rodents maintained on high-fat diet); test: insulin sensitization, glucose lowering and energy expenditure in animal models for T2D; format: in vivo
[9] = tested on: animal models for T2D (e.g., rodents maintained on high-fat diet); test: as above; format: in vivo
Forkhead box O1 (FoxO1) = Forkhead box O1 (FoxO1) (Homo sapiens, UniProt Q12778); test: transcriptional activity of FoxO1
[10] = 4-week M16αα study in T2D patients, trough plasma levels; format: in vivo, human; conditions: Cohort 1 patients, 40 mg once daily oral, 28-day dosing period
Experimental: Pre-dose blood samples to determine trough levels of M16αα were collected in lithium heparin tubes at the following dosing days: 1, 8, 15, 28, and EOS visit. Plasma M16αα concentrations have been presently processed for Cohort 1 patients only. […] Calculated PK parameters: Pre-dose Css.
Plasma concentrations of M16αα are determined by a validated LC/MS method. The lower and upper limits of quantitation for M16αα concentrations are 100 ng/mL and 5000 ng/mL, respectively. The assay is linear from 0.1-5 μg/mL. Dilution extends the range to 100 μg/mL

Chain of Forkhead box O1 (FoxO1) (Q12778 whole entry, species assumed): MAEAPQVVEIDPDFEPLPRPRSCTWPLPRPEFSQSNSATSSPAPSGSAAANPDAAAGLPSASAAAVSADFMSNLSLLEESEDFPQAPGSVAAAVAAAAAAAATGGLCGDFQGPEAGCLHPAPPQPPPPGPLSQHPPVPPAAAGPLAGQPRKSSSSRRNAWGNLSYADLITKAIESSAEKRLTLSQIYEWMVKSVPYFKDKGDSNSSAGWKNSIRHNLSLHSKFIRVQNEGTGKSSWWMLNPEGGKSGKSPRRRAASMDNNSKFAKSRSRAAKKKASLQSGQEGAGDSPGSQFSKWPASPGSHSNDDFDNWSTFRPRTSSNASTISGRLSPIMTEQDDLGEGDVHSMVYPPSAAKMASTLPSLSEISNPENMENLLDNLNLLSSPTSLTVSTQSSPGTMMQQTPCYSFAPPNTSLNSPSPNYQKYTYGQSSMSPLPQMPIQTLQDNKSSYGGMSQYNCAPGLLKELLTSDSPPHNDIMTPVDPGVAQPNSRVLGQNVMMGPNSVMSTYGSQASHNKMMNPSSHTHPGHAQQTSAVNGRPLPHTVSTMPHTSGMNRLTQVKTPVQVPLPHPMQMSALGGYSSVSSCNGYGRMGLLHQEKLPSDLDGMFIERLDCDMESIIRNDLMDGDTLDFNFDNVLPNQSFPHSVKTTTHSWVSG
Chain of Signal transducer and activator of transcription 3 (STAT3) (P40763 whole entry, species assumed): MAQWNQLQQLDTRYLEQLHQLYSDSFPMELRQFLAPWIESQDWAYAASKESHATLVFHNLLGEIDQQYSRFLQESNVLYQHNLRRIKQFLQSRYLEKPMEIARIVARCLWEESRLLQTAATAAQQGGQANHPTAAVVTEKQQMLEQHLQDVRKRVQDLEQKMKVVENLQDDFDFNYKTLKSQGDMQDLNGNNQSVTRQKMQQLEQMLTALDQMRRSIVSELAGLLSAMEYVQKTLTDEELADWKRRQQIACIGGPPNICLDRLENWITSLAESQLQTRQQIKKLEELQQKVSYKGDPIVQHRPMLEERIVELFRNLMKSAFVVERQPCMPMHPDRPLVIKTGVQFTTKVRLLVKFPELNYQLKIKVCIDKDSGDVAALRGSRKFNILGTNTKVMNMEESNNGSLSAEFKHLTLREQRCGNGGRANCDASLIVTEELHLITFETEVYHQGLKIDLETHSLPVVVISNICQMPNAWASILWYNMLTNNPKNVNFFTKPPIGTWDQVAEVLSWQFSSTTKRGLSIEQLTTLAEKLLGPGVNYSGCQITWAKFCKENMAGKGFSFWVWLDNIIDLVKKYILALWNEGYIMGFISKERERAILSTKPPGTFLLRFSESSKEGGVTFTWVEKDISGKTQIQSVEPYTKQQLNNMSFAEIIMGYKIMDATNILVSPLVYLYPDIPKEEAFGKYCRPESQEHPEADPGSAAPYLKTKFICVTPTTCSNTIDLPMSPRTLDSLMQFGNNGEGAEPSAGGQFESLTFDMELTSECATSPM

SMILES: CC(C)(CCCCCCCCCCCCC(C)(C)C(=O)O)C(=O)O [M16αα, 2,2,15,15-tetramethyl-hexadecane-1,16-dioic acid]
- transcriptional activity of STAT3 [1]: suppressing
- glucose uptake [2]: increase glucose uptake
- transcriptional activity of HNF4α [3]: suppressing
- blood glucose levels [4]: significantly decrease
- serum insulin levels [4]: significantly decrease
- serum triglyceride levels [4]: significantly decrease
- half-life (T1/2) (half-life in humans): 30 to 80 h
- half-life (half-life in humans; human, in vivo, as stated in PK evaluation, read-out: half-life): 30 to 80 h
- hepatic glucose production (HepG2 human liver cells): significant or full inhibition
- expression of genes that control liver gluconeogenesis and lipid synthesis [5]: effective in inhibiting
- gating of mitochondrial PTP [6]: induces low-conductance gating of mitochondrial PTP
- serious adverse events (SAE) [7]: No serious adverse events (SAE) were recorded
- tolerability and safety [7]: well tolerated and safe
- plasma LDL-cholesterol (animal models): statin-like efficacy in lowering plasma LDL-cholesterol
- plasma triglycerides (animal models): robust decrease of plasma triglycerides
- insulin-sensitizing and glucose-lowering efficacy [8]: potent insulin-sensitizing and glucose-lowering efficacy
- energy expenditure [9]: increased energy expenditure
- transcriptional activity of FoxO1 (Forkhead box O1 (FoxO1)): suppressing
- trough M16αα plasma concentrations [10]: increased progressively throughout the 28-day dosing period

Source: US11207285B2, “Diabetes treatment regimens using alpha, alpha-substituted long-chain amphipathic carboxylates” (SYNDROMEX LTD., priority 2016, dated 2021)
